Assay results as given in ChEMBL document CHEMBL1126541, “Novel water soluble phosphate prodrugs of taxol possessing in vivo antitumor activity” (1993).

Key:
Format in all cases: functional, Mus musculus
M109 [1] = assay: In vivo antitumor activity in M109 (Murine lung carcinoma cells) tumor model after (ip) administration on days 5 and 8 at dose of 140 mg/kg/injection.
M109 [2] = assay: In vivo antitumor activity in M109 (Murine lung carcinoma cells) tumor model after (ip) administration on days 5 and 8 at dose of 70 mg/kg/injection.
M109 [3] = assay: In vivo antitumor activity of the taxol was determined in M109 (Murine lung carcinoma cells) tumor model after (ip) administration in 10% Tween 80 in saline on days 5 and 8 at dose of 40 mg/kg/injection in presence of Taxol
M109 [4] = assay: In vivo antitumor activity in M109 (Murine lung carcinoma cells) tumor model after (ip) administration on days 1, 5,and 9 at dose of 100 mg/kg/injection.
M109 [5] = assay: In vivo antitumor activity of the taxol was determined in M109 (Murine lung carcinoma cells) tumor model after (ip) administration in 10% Tween 80 in saline on days1, 5, and 9 at a dose of 30 mg/kg/injection in presence of Taxol

| Compound | T/C (M109 [1]) [%] | T/C (M109 [2]) [%] | T/C (M109 [3]) [%] | T/C (M109 [4]) [%] | T/C (M109 [5]) [%] |
| --- | --- | --- | --- | --- | --- |
| CC(=O)O[C@H]1C(=O)[C@]2(C)[C@@H](OC(=O)CC(C)(C)c3c(C)cc(C)cc3OP(=O)([O-])[O-])C[C@H]3OC[C@@]3(OC(C)=O)[C@H]2[C@H](OC(=O)c2ccccc2)[C@]2(O)C[C@H](OC(=O)[C@H](O)[C@@H](NC(=O)c3ccccc3)c3ccccc3)C(C)=C1C2(C)C.[Na+].[Na+] | 156 | 153 | 144 |  |  |
| CC(=O)O[C@H]1C(=O)[C@@]2(C)[C@H]([C@H](OC(=O)c3ccccc3)[C@]3(O)C[C@H](OC(=O)[C@H](OC(=O)CC(C)(C)c4c(C)cc(C)cc4OP(=O)([O-])[O-])[C@@H](NC(=O)c4ccccc4)c4ccccc4)C(C)=C1C3(C)C)[C@]1(OC(C)=O)CO[C@@H]1C[C@@H]2O.[Na+].[Na+] |  |  |  | 144 | 275 |
